These results are taken from patent US5624924A, “Quinobenzothiazine antineoplastic agents” (priority 1994, dated 1997).

“And” between values parts separate entries of the source, which are not always exact repeats. Equal values may be shown once. Where a name gives a salt, the structure may show the parent alone. Where only a bound is given, the exact number is not on record here.

One data set relates to P388 ascitic leukemia. As to the kind of experiment: In vivo activity against systemic tumor P388. On the set-up: species or system mouse. To be noted: 20 mg/kg IP once daily, five days; positive control. How it is done: Prior to testing, P388 was propagated intraperitoneally in female DBA2 mice. The ascitic tumors were intraperitoneally injected in female B6 D2 F1 mice at a concentration of 10^6 cells per mouse. The mice were treated with antiumor agents administered once daily for five consecutive days, with the antineoplastic 5-fluorouracil used as a positive control.
All drugs were administered intraperitoneally in 5% aqueous dextrose or other suitable diluent. Drug efficacy was evaluated based on prolongation of mean survival time (MST). Improvement of MST was calculated as % MST(T/C), the percent ratio of mean survival times of test (T) versus control (C) mice. Compounds having % MST(T/C) values greater than 125 are considered to have significant activity. The antitumor activity of the two compounds in the P388 systemic leukemia model is illustrated in Table 3 below.

The next data set deals with B16F10 mouse melanoma. As to the kind of experiment: In vitro cytotoxicity (MTT), B16F10. The class given is cell-based. To be noted: B16-F10, 72 h, read-out: In Vitro Cytotoxicity (IC50). The protocol: (§1) Metabolic activity was measured by the cells' ability to reduce the tetrazolium dye, 3-(4,5-dimethylthiazol-2-yl)-2,5-diphenyltetrazolium bromide (MTT), to a quantifiable colored formasan derivative. Surviving cells reduce the MTT dye. The inhibitory concentrations of killing 50% of the cells (IC50 s) were calculated. Testing was in accord with the following protocol:
(§2) Test compounds and a reference antineoplastic agent, ADRIAMYCIN (doxorubicin hydrochloride), were dissolved in dimethyl sulfoxide (DMSO) and diluted, first with Earle's Balanced Salt Solution, followed by culture medium, to twice the highest concentration of the compound to be tested. From this concentrated stock, two-fold serial dilutions were prepared in 96-well microtiter trays, each well containing twice the desired final concentration of the compound. Each concentration was tested in triplicate and compared to triplicate drug-free controls.
(§3) The cells were grown in the same medium used for diluting the compounds. Adherent cells were harvested by trypsinization according to the following procedure:
(§4) After harvesting by trypsinization, viable cell counts were determined and cell density was adjusted to 25,000 cells/mL. Inoculum (0.1 mL) was then added to each well for a final concentration of 2,500 cells per well. Addition of the inoculum was used to dilute the test compounds to the desired concentration.
(§5) Microtiter trays were incubated for three days at 36° C. in a humidified atmosphere containing 5% carbon dioxide.
(§6) After three days, 20 microliters of 5 mg/mL MTT in phosphate-buffered solution were added to each well of the microtiter trays. The microtiter trays were then returned to the incubator for two to four hours to allow the surviving cells to reduce the dye. After this incubation, both the medium and the unreduced dye were removed by aspiration. DMSO was added to each well to dissolve the water-insoluble, colored end product of the dye reduction for spectrophotometric measurement at 570 nm.
(§7) Compounds from Examples 4, 6, 8, 9 and 10 were additionally tested against human and murine tumor cell lines A549, HT-29, P388-D1, P388, P388-ADR(0.0), P388-ADR(0.1) and B16F109. (P388 is a mouse leukemia cell line similar to P388-D1, but animal-passaged; P388-ADR (0.0) is an ADRIAMYCIN-resistant variant of P388, the inoculum of which is grown in drug-free medium; P388-ADR (0.1) is an ADRIAMYCIN-resistant variant of P388, the inoculum of which is grown in medium with 0.1 mcg.ml ADRIAMYCIN; and B16F10 is a mouse melanoma.) The results are presented in Table 2; as shown in the table, the compounds of the present invention are effective cytotoxic agents even against the ADRIAMYCIN-resistant cell line P388-ADR.

For data set [1], the system named is HT-29 human colon cancer cell line. In words: In vitro cytotoxicity (MTT), HT-29. The class given is cell-based. The note with it: HT-29, 72 h, read-out: In Vitro Cytotoxicity (IC50), HT-29, Table 2, ADR: average of two tests. The protocol: as §1, §2, §3, §4, §5, §6
(§8) The results obtained which clearly show the cytotoxicity of the compounds of Examples 5, 6, 7 and 8 against […] tumor cell lines A549, HCT-8, HT-29 and P388-D1, are illustrated in Table 1. (A549 is a human lung cancer cell line; HCT-8 is a human colon cancer cell line; HT-29 is a human colon cancer cell line; and P388-D1 is a mouse leukemia cell line.)

Data set [2] deals with P388 mouse leukemia cell line. As to the kind of experiment: In vitro cytotoxicity (MTT), P388. The note with it: P388, 72 h, read-out: In Vitro Cytotoxicity (IC50). Type of data set: cell-based. The protocol:
as §1, §2, §3, §4, §5, §6, §7

For data set [3], the system named is P388-ADR(0.0), ADRIAMYCIN-resistant variant of P388. In words: In vitro cytotoxicity (MTT), P388-ADR(0.0). Type of data set: cell-based. To be noted: Mus musculus, 72 h, inoculum grown in drug-free medium, Table 2. The protocol:
as §1, §2, §3, §4, §5, §6, §7

In data set [4] the test system is A549 human lung cancer cell line. In words: In vitro cytotoxicity (MTT), A549. Type of data set: cell-based. The note with it: A549, 72 h, read-out: In Vitro Cytotoxicity (IC50), A549, Table 2, ADR: average of two tests. How it is done:
as §1, §2, §3, §4, §5, §6, §8

The next data set can be described thus: Aqueous solubility. To be noted: water. Type of data set: physicochemical. From the text:
The effect of peptidyl substitution on the solubility of the compounds of the invention was examined by dissolving samples thereof in water.

A word on the IC50: it is the concentration that inhibits the measured activity by half. What is called solubility is the dissolved amount per volume that the medium holds. A lower solubility goes with little dissolved substance.

As for `O=c1[nH]cc(F)c(=O)[nH]1` [5-Fluorouracil, 5-fluorouracil, reference compound], the “% MST(T/C)” value in the data set on P388 ascitic leukemia is 160% and 186.67%.
Regarding `N[C@H]1CCN(c2c(F)cc3c(=O)c(C(=O)O)cn4c3c2Oc2ccccc2-4)C1` [Example 16, 1((3S)-3-aminopyrrolidin-1-yl)-2-fluoro-4-oxo-4H-quino[2,3,4-i,j][1,4]benzoxazine-5-carboxylic acid hydrochloride], the IC50 turned out to be 0.018 µg/mL with B16F10 mouse melanoma; 0.055 µg/mL in data set [1]; 0.017 µg/mL in data set [2]; 0.12 µg/mL in data set [3]; 0.23 µg/mL in data set [4].
On the same counts, the results for `N[C@@H]1CCN(c2c(F)cc3c(=O)c(C(=O)O)cn4c3c2Oc2ccccc2-4)C1` [Example 17, 1-((3R)-3-aminopyrroidin-1-yl)-2-fluoro-4-oxo-4H-quino[2,3,4-i,j][1,4]benzoxazine-5-carboxylic acid hydrochloride] are 0.011 µg/mL, 0.068 µg/mL, 0.021 µg/mL, 0.1 µg/mL and 0.042 µg/mL.
On to `Cc1ccc2c(c1)Oc1c(N3CC[C@H](N)C3)c(F)cc3c(=O)c(C(=O)O)cn-2c13` [Example 18, 1-((3S)-3-aminopyrrolidin-1-yl)-2-fluoro-9-methyl-4-oxo-4H-quino[2,3,4-i,j][1,4]benzoxazine-5-carboxylic acid hydrochloride], for which the IC50 worked out at 0.024 µg/mL in the data set with B16F10 mouse melanoma; 0.04 µg/mL in data set [1]; 0.047 µg/mL in data set [2]; 0.13 µg/mL in data set [3]; 0.11 µg/mL in data set [4].
For the molecule `NC1CCN(c2c(F)cc3c(=O)c(C(=O)N4CCOCC4)cn4c3c2Oc2ccccc2-4)C1` (centres unmarked) [Example 29, 1-(3-aminopyrrolidin-1-yl)-2-fluoro-5-(1-morpholinocarbonyl)-4-oxo-4H-quino[2,3,4-i,j][1,4]benzoxazine trifluoracetate salt], the IC50 with B16F10 mouse melanoma worked out at 0.56 µg/mL; in data set [1], 1.4 µg/mL; in data set [2], 0.54 µg/mL; in data set [3] it was 49.4 µg/mL; in data set [4] it was 6 µg/mL.
On to `CCC[C@H](NC(=O)[C@@H](N)CCC)C(=O)NC1CCN(c2c(F)cc3c(=O)c(C(=O)O)cn4c3c2Oc2ccccc2-4)C1` (some centres unmarked) [Example 38, 1-(3-Norvalylnorvalylaminopyrrolidin-1-yl)-2-fluoro-4-oxo-4H-quino[2,3,4-i,j][1,4]benzoxazine-5-carboxylic acid hydrochloride], for which the solubility in “Aqueous solubility” came to 11.1 mg/mL.
Regarding `CCC[C@H](N)C(=O)N[C@@H](C)C(=O)NC1CCN(c2c(F)cc3c(=O)c(C(=O)O)cn4c3c2Oc2ccccc2-4)C1` (some centres unmarked) [Example 40, 1-(3-Norvalylalanylaminopyrrolidin-1-yl)-2-fluoro-4-oxo-4H-quino[2,3,4-i,j][1,4]benzoxazine-5-carboxylic acid hydrochloride], the solubility in the data set “Aqueous solubility” is over 47.8 mg/mL.
